Source: paper PMC11647725, “Discovery of 4-(5-Membered)Heteroarylether-6-methylpicolinamide Negative Allosteric Modulators of Metabotropic Glutamate Receptor Subtype 5” (ACS Medicinal Chemistry Letters, 2024)
Read-outs that look alike come from different tables or passages of the source.

What was measured:
[1] = target: T1, human mGlu5 (Homo sapiens, UniProt P41594); assay: Calcium mobilization assay in human mGlu5-HEK293A cells (NAM, EC80 glutamate); assay type: cell-based; settings: for % GluMin: efficacy of the NAM to reduce an EC80 response of glutamate; for pIC50: n = 2 in triplicate; for IC50: read-out: hmGlu5 IC50
T1 construct: expressed in transfected cells
T1 sequence (P41594 21-1212): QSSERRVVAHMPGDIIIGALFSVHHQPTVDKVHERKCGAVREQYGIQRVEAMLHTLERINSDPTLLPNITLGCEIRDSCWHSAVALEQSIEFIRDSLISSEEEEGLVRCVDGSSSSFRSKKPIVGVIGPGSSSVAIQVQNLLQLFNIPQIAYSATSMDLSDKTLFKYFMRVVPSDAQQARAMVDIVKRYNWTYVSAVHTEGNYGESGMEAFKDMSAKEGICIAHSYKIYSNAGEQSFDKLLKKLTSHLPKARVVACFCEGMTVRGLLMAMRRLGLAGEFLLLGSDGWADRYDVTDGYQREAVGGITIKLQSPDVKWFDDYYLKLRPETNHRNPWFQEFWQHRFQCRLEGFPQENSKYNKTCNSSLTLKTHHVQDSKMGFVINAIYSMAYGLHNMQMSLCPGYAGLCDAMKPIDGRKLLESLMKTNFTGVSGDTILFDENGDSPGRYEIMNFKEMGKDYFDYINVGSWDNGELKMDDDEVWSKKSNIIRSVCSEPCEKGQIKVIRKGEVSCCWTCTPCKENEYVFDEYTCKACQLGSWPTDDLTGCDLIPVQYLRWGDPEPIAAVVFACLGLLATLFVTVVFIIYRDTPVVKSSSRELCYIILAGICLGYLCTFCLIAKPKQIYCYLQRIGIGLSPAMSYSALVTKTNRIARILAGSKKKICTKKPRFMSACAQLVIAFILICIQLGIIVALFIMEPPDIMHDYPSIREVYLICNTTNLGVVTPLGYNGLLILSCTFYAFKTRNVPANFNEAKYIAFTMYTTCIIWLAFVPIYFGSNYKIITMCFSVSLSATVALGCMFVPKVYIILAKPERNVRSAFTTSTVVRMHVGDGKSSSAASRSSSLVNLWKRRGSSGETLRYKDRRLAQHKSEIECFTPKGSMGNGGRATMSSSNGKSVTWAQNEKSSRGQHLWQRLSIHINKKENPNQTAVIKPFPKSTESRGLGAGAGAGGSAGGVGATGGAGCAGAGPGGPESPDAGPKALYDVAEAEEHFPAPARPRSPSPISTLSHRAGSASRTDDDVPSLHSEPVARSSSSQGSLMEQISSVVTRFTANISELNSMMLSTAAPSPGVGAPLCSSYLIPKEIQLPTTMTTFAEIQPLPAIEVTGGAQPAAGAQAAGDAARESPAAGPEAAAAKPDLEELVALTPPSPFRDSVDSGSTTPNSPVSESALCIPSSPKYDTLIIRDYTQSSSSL

[2] = Binding in plasma from human (equilibrium dialysis); assay type: in vitro ADME; settings: for fraction unbound at 6 h, 5 µM: human, plasma, read-out: Human fu,plasma
Method: (§1) Binding in plasma from rat and human.
(§2) Determination of compounds’ fraction unbound (f u) in plasma from rat and human was conducted in vitro via equilibrium dialysis using HTDialysis membrane plates. Dialysis membranes (four paired strips per HTD assay) were hydrated as described by the manufacturer and inserted into the HTD plate, which was assembled and prepared for sample addition by the dispensing of blank buffer (DPBS, 100 µL/well) into the ‘top half’ of each membrane-split well. Each compound was diluted into plasma from each species (5 µM final concentration), which was aliquoted in triplicate to the ‘bottom half’ of the prepared HTD plate wells. The HTD plate was sealed and incubated for 6 hours at 37 °C. Following incubation, each well (both top and bottom halves) were transferred (20 µL) to the corresponding wells of a 96-shallow-well (V-bottom) plate. The daughter plates were then matrix-matched (buffer side wells received equal volume of plasma, and plasma side wells received equal volume of buffer), and extraction solution (120 µL; acetonitrile containing 50 nM carbamazepine as IS) was added to all wells of both daughter plates to precipitate protein and extract test article. The plates were then sealed and centrifuged (3500 rcf) for 10 minutes at ambient temperature. Supernatant (60 µL) from each well of the daughter plates was then transferred to the corresponding wells of new daughter plates (96-shallow-well, V bottom) containing water (Milli-Q, 60 µL/well), and the plates were sealed in preparation for LC-MS/MS analysis (see below). fu was calculated as (analyte to IS MS peak area ratio from Trans-buffer side) / (analyte to IS MS peak area ratio from Cis-plasma side). Mean values for each species were calculated from 3 replicates. […]
(§3) Mean values for each species were calculated from 3 replicates. […]
(§4) After 5 minutes (pre-incubation), reactions were initiated by addition of nicotinamide adenine dinucleotide phosphate (NADPH, 1 mM final concentration). At selected time intervals (0, 3, 7, 15, 25, and 45 minutes) post-addition of NADPH, aliquots (50 µL) were taken and placed into a 96-shallow-well plate containing ice cold acetonitrile (150 µL) with carbamazepine (IS, 50 nM). The plates were then centrifuged (3000 rcf at 4 °C) for 10 minutes. The supernatants were transferred to a new 96-shallow-well daughter plate and diluted (1:1 v/v) with water (Milli-Q filtered). The plates were then sealed in preparation for LC-MS/MS analysis (see below).

[3] = Intrinsic clearance in rat liver microsomes; assay type: in vitro ADME; settings: for CLint scaled at 40 min, 1 µM: pH 7.4, rat liver microsomes; for CLhep, rat: predicted hepatic clearance based on microsomal CLint
Method: (§5) Mean values for each species were calculated from 3 replicates.
(§6) Intrinsic Clearance in Rat and Human Liver Microsomes
(§7) The in vitro intrinsic clearance (CL int) was investigated in commercially obtained hepatic microsomes from rat and human donors using the substrate depletion (i.e., loss-of-parent vs. time, or t 1/2 method) approach with analyte detection via liquid chromatography-tandem mass spectrometry (LC-MS/MS). For each species, mean %parent remaining values at each time point were calculated from replicates raw data (analyte:IS peak area ratios) and used to determine in vitro t 1/2 and CLint.
as §4, with “Experiments were carried out using a robot-assisted (TECAN model Evo 200). Compound was incubated (1 µM final concentration) in buffer (100 mM potassium phosphate pH 7.4 with 3 mM MgCl2) containing hepatic microsomes (0.5 mg/mL final concentration) from multiple species, discretely, at 37 °C under constant orbital shaking. After” for “After”
(§8) Raw LC-MS/MS peak area data generated from the assay samples were used to construct natural log-transformed %parent remaining vs. time plots (using t = 0 minute post-NADPH addition sample data as starting point set to 100%). In vitro compound half-life (t 1/2) values were obtained using the following […]
(§9) k is the slope from linear regression analysis of the natural log-transformed data (using means from Where all replicates at each time point). Resulting t 1/2 values were then used to calculate hepatic CLint values according to the following equation and with the use of species-specific scale-up factors for liver weight (grams) per total body weight (kg): […]
(§10) CLint = in vitro t1/2 x 0.5 mg microsomes x 1 gram liver x kg body wt aScale-up factors used are 45 (rat) and 20 (human).4
(§11) Predicted hepatic clearance (CLhep) was calculated using the following equation: […]
(§12) Qh represents hepatic blood flow (mL/min/kg): 21 for human, 70 for rat, and 90 for mouse.
(§13) Prepared samples were injected (10 µL each) onto an AB Sciex Triple Quad 4500 mass spectrometer system with an Agilent 1260 Infinity II pump and autosampler. Mass spectrometer conditions are described in Table S1. Quantitation of compounds was performed via AB Sciex Multiquant software using the raw analyte:IS peak area ratios. The typical detection range was 0.5 ng/mL to ≥ 5,000 ng/mL utilizing a quadratic equation regression with 1/x2 weighting.
(§14) Correction for dilution of all brain samples (in extraction buffer and subsequently in blank plasma, as previously described) was performed post-quantitation. The corrections for dilution in extraction buffer employed correction factors specific to each brain weight (not shown).

[4] = Binding in brain homogenate from rat (equilibrium dialysis); assay type: in vitro ADME; settings: rat, brain homogenate, rat brain homogenates, read-out: Rat fu,brain
Method: transferred to the corresponding wells of new daughter plates (96-shallow-well, V bottom) containing water (Milli-Q, 60 µL/well), and the plates were sealed in preparation for LC-MS/MS analysis (see below). fu was calculated as (analyte to IS MS peak area ratio from Trans-buffer side) / (analyte to IS MS peak area ratio from Cis-plasma side). Mean values for each species were calculated from 3 replicates.
Binding in brain homogenate from rat.
Determination of fraction unbound (f u) in brain homogenate from rat was conducted using the same methodology and procedure than described for plasma protein binding assay with the following modifications: 1) a final compound concentration of 1 μM was used, 2) naïve rat brains were homogenized in DPBS (1:3 composition of brain: DPBS, w/w) using a Mini-Bead Beater™ machine in order to obtain […]
The diluted fraction unbound (f u2) in brain was calculated as (analyte to IS MS peak area ratio from Trans-buffer side) / (analyte to IS MS peak area ratio from Cis-brain homogenate side). Undiluted fraction unbound for the brain was calculated using the following equation: […]
as §3

[5] = IV plasma-brain level determination (PBL) in rat; assay type: in vivo; settings: male, Sprague-Dawley, brain and plasma, SD rat, 0.2 mg/kg IV; for Kp at 0.25 h: total brain-to-plasma partition ratio
[6] = Intrinsic clearance in human liver microsomes; assay type: in vitro ADME; settings: for CLint scaled at 40 min, 1 µM: pH 7.4, human liver microsomes; for CLhep, human: predicted hepatic clearance based on microsomal CLint
Method: as §5, §6, §7
as §4, with “Experiments were carried out using a robot-assisted (TECAN model Evo 200). Compound was incubated (1 µM final concentration) in buffer (100 mM potassium phosphate pH 7.4 with 3 mM MgCl2) containing hepatic microsomes (0.5 mg/mL final concentration) from multiple species, discretely, at 37 °C under constant orbital shaking. After” for “After”
as §8, §9, §10, §11, §12, §13, §14

[7] = Binding in plasma from rat (equilibrium dialysis); assay type: in vitro ADME; settings: samples had low analyte peaks
Method: as §1, §2, §3, §4

[8] = human mGlu5-HEK293A cells, EC80 fixed concentration of glutamate

| SMILES | % GluMin ([1]; human mGlu5-HEK293A cells) [%] | pIC50 [1, 8] | IC50 [1, 8] [nM] | IC50 [1] [nM] | Human fu,plasma ([2]; fraction unbound) | fraction unbound at 6 h, 5 µM [2] | CLint scaled at 40 min, 1 µM [3] [mL/min/kg] | CLhep, rat [3] [mL/min/kg] | fraction unbound at 6 h, 1 µM [4] | Kp at 0.25 h [5] | Kp uu at 0.25 h ([5]; unbound brain-to-plasma partition ratio) | CLint scaled at 40 min, 1 µM [6] [mL/min/kg] | CLhep, human [6] [mL/min/kg] | stability in rat plasma [7] | fold increase in hmGlu5 potency ([1]; 22fC vs 22bC, 22gA vs 22iA, 22iA vs 22hA, 22iB vs 22hB) [fold] |
| --- | --- | --- | --- | --- | --- | --- | --- | --- | --- | --- | --- | --- | --- | --- | --- |
| Cc1cc(Oc2cc(C(F)F)n(C)n2)cc(C(=O)Nc2nc(C)cs2)n1 [22cB] | 2 | 5.74 | 1850 |  |  |  |  |  |  |  |  |  |  |  |  |
| Cc1cccc(NC(=O)c2cc(Oc3cnn(C)c3)c(C(F)(F)F)cn2)n1 [24C] | 2 | 5.89 | 1330 | 1300 |  |  |  |  |  |  |  |  |  |  |  |
| Cc1cc(Oc2ccnn2C)cc(C(=O)Nc2nc(C)cs2)n1 [22hB] | 2 | 7.02 | 96 |  | 0.062 | > 0.04 | 45 | 27 | 0.029 | 1.13 | 0.15 | 216 | 19 |  |  |
| Cc1cc(Oc2cnn(C)c2C(F)(F)F)cc(C(=O)Nc2ccc(F)cn2)n1 [22gA] | 2 | 6.93 | 120 |  |  | 0.012 | 82 | 38 |  | 3.08 |  | 11 | 7 | possibly be unstable in rat plasma | ~3 |
| Cc1cccc(NC(=O)c2cc(Oc3c(C)nn(C)c3C)cc(C)n2)n1 [22aC] | 2 | 5.55 | 2840 | 2800 |  |  |  |  |  |  |  |  |  |  |  |
| Cc1cccc(NC(=O)c2cc(Oc3cnn(C)c3C(F)(F)F)cc(C)n2)n1 [22gC] |  |  |  |  |  | 0.011 | 600 | 63 | 0.005 |  |  | 68 | 16 |  |  |
| Cc1cccc(NC(=O)c2cc(Oc3ccnn3C)cc(C)n2)n1 [22hC] | 2 | 7.04 | 91 |  |  | 0.034 | 320 | 57 | 0.021 | 2.42 |  | 241 | 19 | potentially be unstable in rat plasma |  |
| Cc1cc(Oc2ccnn2C)cc(C(=O)Nc2ccc(F)cn2)n1 [22hA] | 2 | 6.30 | 506 |  |  |  |  |  |  |  |  |  |  |  |  |
| Cc1cc(Oc2cnn(C)c2C(F)(F)F)cc(C(=O)Nc2nc(C)cs2)n1 [22gB] | 2 | 7.58 | 26 |  |  |  | 817 | 65 |  | 5.57 |  | 70 | 16 | possibly be unstable in rat plasma |  |
| Cc1cc(Oc2cn(C)nc2C)cc(C(=O)Nc2nc(C)cs2)n1 [22bB] | 2 | 5.91 | 1250 |  |  |  |  |  |  |  |  |  |  |  |  |
| Cc1cc(Oc2cc(C)n(C)n2)cc(C(=O)Nc2nc(C)cs2)n1 [22eB] | 2 | 5.77 | 1720 |  |  |  |  |  |  |  |  |  |  |  |  |
| Cc1cc(Oc2ncn(C)n2)cc(C(=O)Nc2nc(C)cs2)n1 [22dB] | 2 | 5.73 | 1890 |  |  |  |  |  |  |  |  |  |  |  |  |
| Cc1csc(NC(=O)c2cc(Oc3cnn(C)c3)c(C(F)(F)F)cn2)n1 [24B] | 2 | 5.55 | 2820 | 2800 |  |  |  |  |  |  |  |  |  |  |  |
| Cc1cccc(NC(=O)c2cc(Oc3ncn(C)n3)cc(C)n2)n1 [22dC] | 2 | 6.00 | 1010 |  |  |  |  |  |  |  |  |  |  |  |  |
